Experimental data as given in patent publication US20250368606A1, “CRYSTALLINE FORMS AND SALT FORMS OF A KINASE INHIBITOR” (Exelixis, Inc., priority 2021, published 2025).
Blank lines part the entries; values can stand above or below the molecule they belong to.

Key:
Format in all cases: physicochemical
[1] = Desolvation / drying attempts at elevated temperature, solids analysed by XRPD
Experimental: Vacuum Oven Desolvation: Salts of Compound 1 that were determined to be solvates by various analytical methods underwent an attempted desolvation. […] Samples were analyzed by XRPD and/or TGA for determination of desolvation success.

[2] = Physical stability (form conversion) of solid forms
[3] = Visual (aqueous) solubility estimation; details: water, thermodynamic from solid, visual observation
Experimental: Solubility Estimation: Aliquots of various solvents were added to measured amounts of Compound 1 with agitation (typically sonication) at stated temperatures until complete dissolution was achieved, as judged by visual observation.
Aqueous Solubility Estimation: Aliquots of water were added to measured amounts of various Compound 1 salts with sonication.

[4] = dried under vacuum at 80° C. for 1 day

SMILES: CNC(=O)c1cc2c(Oc3ccc(NC(=O)C4(C(=O)Nc5ccc(F)cc5)CC4)cc3)ccnc2cc1OC [Compound 1 Hemifumarate Form D]
form of post-drying solids (XRPD) [1, 4]: a mixture of Compound 1 free base Form A and Compound 1 Hemifumarate Form B

SMILES: CNC(=O)c1cc2c(Oc3ccc(NC(=O)C4(C(=O)Nc5ccc(F)cc5)CC4)cc3)ccnc2cc1OC [Compound 1 Hemifumarate Form C]
form of post-drying solids (XRPD) [1, 4]: a mixture of Hemifumarate Form B, with trace Compound 1 free base Form A, and a few additional peaks

physical stability: resulting form on exposure to elevated temperature ([2]; elevated temperature): Material K
solubility [3]: < 250 µg/mL
SMILES: CNC(=O)c1cc2c(Oc3ccc(NC(=O)C4(C(=O)Nc5ccc(F)cc5)CC4)cc3)ccnc2cc1OC [Amorphous Compound 1, N-(4-fluorophenyl)-N-(4-((7-methoxy-6-(methylcarbamoyl)quinolin-4-yl)oxy)phenyl)cyclopropane-1,1-dicarboxamide]
physical stability: resulting form on contact with diethyl ether ([2]; immediately on contact with diethyl ether): crystallized to a mixture of Forms X and K

XRPD Results after desolvation attempt ([1]; 105-120° C. vacuum, 2 hours): Form K
XRPD Results after desolvation attempt ([1]; 110° C., 1 hour): Form K + X
SMILES: CNC(=O)c1cc2c(Oc3ccc(NC(=O)C4(C(=O)Nc5ccc(F)cc5)CC4)cc3)ccnc2cc1OC [Form R]

form of post-drying solids (XRPD) ([1]; dried under vacuum at 72° C. for 1 day): unique disordered crystalline pattern
SMILES: CNC(=O)c1cc2c(Oc3ccc(NC(=O)C4(C(=O)Nc5ccc(F)cc5)CC4)cc3)ccnc2cc1OC [Hemifumarate Form E]

physical stability of the solvate ([2]; likely NMP solvate, only obtained as a mixture with Form A): readily converts to Form A
SMILES: CNC(=O)c1cc2c(Oc3ccc(NC(=O)C4(C(=O)Nc5ccc(F)cc5)CC4)cc3)ccnc2cc1OC [Compound 1 Form S]

form of post-drying solids (XRPD) ([1]; post-drying sample further dried under vacuum at 88° C. for 1 day): maintained the same form
SMILES: CNC(=O)c1cc2c(Oc3ccc(NC(=O)C4(C(=O)Nc5ccc(F)cc5)CC4)cc3)ccnc2cc1OC [Hemifumarate Form F]

XRPD Results after desolvation attempt ([1]; 60° C.-72° C. vacuum 6 days): Form T + Form U
XRPD Results after desolvation attempt ([1]; 70° C. vacuum 3 days): Form U + Form T
XRPD Results after desolvation attempt ([1]; 105-120° C. vacuum, 2 hours): Form T (blue grey)
XRPD Results after desolvation attempt ([1]; 170° C. 15 minutes): Form T + Form A (grey brown)
SMILES: CNC(=O)c1cc2c(Oc3ccc(NC(=O)C4(C(=O)Nc5ccc(F)cc5)CC4)cc3)ccnc2cc1OC [Form U]

physical stability under drying conditions (XRPD) ([1]; 120° C. for 30 minutes): A mixture of Napsylate Form B and Form C
SMILES: CNC(=O)c1cc2c(Oc3ccc(NC(=O)C4(C(=O)Nc5ccc(F)cc5)CC4)cc3)ccnc2cc1OC [Napsylate Form A]
physical stability under drying conditions (XRPD) ([1]; 48° C. under vacuum for approximately 3 days): XRPD peaks attributed to Napsylate Form B increased in intensity
